Assay results published in paper PMC5896380, “Selective imaging of cathepsin L in breast cancer by fluorescent activity-based probes” (Chemical Science, 2018).

Experiments:
[1] = tested on: cathepsins L and B in HEK293T cells; test: Cathepsin labeling by Cy5 probes in HEK293T cells, immunoblotting; type: cell-based, human; conditions: 1 μM probe, 0–18 hours
Method: Figure S3 Cathepsins labeling by two Cy5-tagged probes in HEK293T cells. Panel A. Cells (100,000/well/mL) were incubated with MP-cL3 (1µM) probe for 0-18 hours. Next, cells were harvested and subjected for Western blotting. MP-cL3 probe is very selective toward cathepsin L even after 18 hours of incubation (only residual cathepsin B activity is detected).
MDA-MB-231, thus mostly heavy chain of cathepsin L is labeled. Panel B and Panel C. Cells (100,000/well/mL) were incubated with pan-specific MP-pc1 (1µ M) probe for 0-18 hours. Next, cells were harvested and subjected […]
(1 picture or pasted object on this page, not shown here)

cathepsin V = target: T1, cathepsin V (Homo sapiens, UniProt O60911); test: kobs/I of activity-based probes, cathepsin V; type: biochemical; conditions: Fig. 6A; pseudo-first order, probe at least 5-fold excess over cathepsin, 100 μM ACC substrate; pH 5.5, 37 °C; triplicate, SD below 20%
T1 construct: made in house
T1 sequence (O60911 114-334): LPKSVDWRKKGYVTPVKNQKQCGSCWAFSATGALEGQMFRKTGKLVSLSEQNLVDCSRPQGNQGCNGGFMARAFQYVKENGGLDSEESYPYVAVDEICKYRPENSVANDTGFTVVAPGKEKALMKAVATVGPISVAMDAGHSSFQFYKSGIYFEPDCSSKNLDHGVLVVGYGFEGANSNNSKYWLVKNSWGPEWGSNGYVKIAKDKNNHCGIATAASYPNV
Method: (§1) All kinetic experiments were performed using fMax (Molecular Devices) and CLARIOStar (BMG LABTECH) spectrofluorimeters operating in kinetic mode using 96-well plates. ACC-labeled substrates were screened using 355 nm and 460 nm wavelengths (excitation and emission, respectively). […] The buffer was prepared at room temperature and the enzyme kinetic studies were performed at 37 °C.
(§2) For the kinetic studies, five recombinant human cathepsins (B, L, V, K and S) were expressed and purified and active site titrated using an E64 inhibitor. The kobs/I parameter was measured under pseudo-first order kinetic conditions, as described.[40] The cathepsin of interest was mixed with various concentrations of probe (at least 5-fold excess over cathepsin) and 100 μM ACC-fluorescence substrate. The experiments were repeated at least three times, and the results are presented as an average. The SDs were below 20%.

cathepsin B = target: T2, cathepsin B (Homo sapiens, UniProt P07858); test: kobs/I of activity-based probes, cathepsin B; type: biochemical; conditions: Fig. 6A; pseudo-first order, probe at least 5-fold excess over cathepsin, 100 μM ACC substrate; pH 5.5, 37 °C; triplicate, SD below 20%
T2 construct: made in house
Method: as §1, §2

[2] = tested on: cathepsin L in MDA-MB-231 cells; test: Weighted colocalization of probe with cathepsin L antibody, confocal microscopy; type: cell-based, human; conditions: 1 μM probe
Method: Glass coverslips 15 mm in diameter were placed in 12-well plates and coated with poly-D-lysine (500 μL, 1 mg mL^–1 in water, Specialty Media) for 30 minutes. The poly-D-lysine was aspirated and the coverslips were washed twice with sterile water and air-dried. Next, low passage MDA-MB-231 cells in DMEM (100 000 cells per mL) were added to wells (1 mL per well) and allowed to attach for 2 hours. Cells were then treated with Cy5-labeled probes (1 μM) for 8 or 24 hours. The control cells were preincubated with E64d for 2 hours. After various incubation times, the medium was removed and the cells were gently washed twice with DPBS (1 mL each). The cells were then fixed with ice-cold methanol (500 μL per well) for 15 minutes at –20 °C. The methanol was gently removed and the fixed cells were washed twice with DPBS, blocked and permeabilized with 10% BSA in DPBS (with 0.5% Triton-X, v/v) for 1 hour at room temperature, and washed twice with 3% BSA in DPBS (with 0.5% Triton-X, v/v). Cathepsins L and B were detected by primary goat anti-hCathepsin L (R&D, AF952, 0.2 mg mL^–1, 1 : 200) and goat anti-hCathepsin B (R&D, AF953, 0.2 mg mL^–1, 1 : 80), respectively, in 3% BSA in DPBS (with 0.5% Triton-X, v/v) for 2 hours at room temperature. The antibodies were removed and the cells were washed twice with 3% BSA in DPBS (with 0.5% Triton-X, v/v) and labeled with a secondary antibody (Alexa Fluor™ 488 donkey anti-goat IgG (H + L), A11055, Invitrogen, 1 : 500) in DPBS (with 0.5% Triton-X, v/v) for 1 hour at room temperature. Next, the cells were washed twice with DPBS, and coverslips were mounted using Vectashield mounting medium fluorescence containing DAPI (Vector Lab. H-1000). In brief, a drop of mounting medium was placed on the Superfrost Plus microscope slide (Fisher Scientific, no. 12-550-15) and the coverslip was placed on the drop upside-down. […] DAPI was detected using the UV channel, the Cy5 probe was detected with a Cy5 filter (excitation at 647 nm (Axio Observer) or 633 nm (Zeiss LSM), emission at 667 nm; red channel) and cathepsins/secondary antibodies were read using FITC filters (excitation at 495 nm (Axio Observer) or 488 nm (Zeiss LSM), emission at 517 nm; […]; green channel). All images were acquired in .tiff format in MetaMorph software or in .lsm format in ZEN software and analyzed using ImageJ and ZEN software. […]
To quantify ABP/cathepsin colocalization we calculated weighted colocalization coefficients between the MP-cL3 ABP (red) and cathepsin L (green) and between the MP-cL3 ABP (red) and cathepsin B (green) using ZEN 2011 software. […]

[3] = tested on: cathepsins L, V, B, S and K; test: Labeling of recombinant cathepsins by Cy5 probes, SDS-PAGE; type: biochemical, human; conditions: cathepsins 10 nM or 100 nM, probe/enzyme ratio 0.2, 1, 5 and 25, 30 min, Cy5 scan
Method: In experiment A, the probe concentrations were 2 nM, 10 nM, 50 nM and 250 nM, while in experiment B the probe concentrations were 20 nM, 100 nM, 500 nM and 2.5 μM. The reaction volume for all the samples was 200 μL. After 30 min, 100 μL of 3× SDS/DTT was added to the reaction mixtures, the samples were boiled for 5 min, and then 20 μL of the sample was run on 4–12% Bis-Tris Plus 15-well gels for 30 min at 200 V with 2 μL of PageRuler™ Prestained Protein Ladder. The gels were then directly scanned at 700 nm (red channel for Cy5 detection; excitation 685 nm) using an Odyssey fluorescence imaging system (LI-COR) and the images were analyzed using Image Studio software.

In the case of “Cy5-6-ahx-His-DThr-Phe(F5)-Cys(Bzl)-AOMK [MP-cL3]”, the “cathepsins labeled in HEK293T cells” value [1] was “bound only cathepsin L”, the “kobs/I Cath-V” value (cathepsin V) was 380 M⁻¹ s⁻¹ and the “kobs/I Cath-B” value (cathepsin B) was 780 M⁻¹ s⁻¹. The weighted colocalization coefficient ([2]; CatL ab (8h), single cells analysis, 98 single cells) was 0.928, the weighted colocalization coefficient ([2]; CatL ab (8h), whole pictures analysis, 8 images) was 0.937 and the weighted colocalization coefficient ([2]; CatL ab (24h), single cells analysis, 59 single cells) was 0.695. For the same substance, the weighted colocalization coefficient ([2]; CatL ab (24h), whole pictures analysis, 8 images) was 0.725 and the “labeling of recombinant cathepsins L, V, B, S and K” value [3] was “very high degree of selectivity”.
